Test results as given in ChEMBL document CHEMBL4765382, “Novel anilide and benzylamide derivatives of arylpiperazinylalkanoic acids as 5-HT/5-HT receptor antagonists and phosphodiesterase 4/7 inhibitors with procognitive and antidepressant activity” (Eur J Med Chem, 2020).
Values belong to the compound of their own block, whether it stands above or below them. Active and inactive are the calls of the source. The calls are words filed in the database; no cut-off is given here.

How the values were obtained:
[1] = target: T1, 5-hydroxytryptamine receptor 1A (Homo sapiens, UniProt P08908); assay: Displacement of [3H]8-OH-DPAT from human 5HT1A receptor expressed in HEK293 cells measured after 1 hr by microbeta counting method; format: cell-based
T1 sequence (P08908 whole entry): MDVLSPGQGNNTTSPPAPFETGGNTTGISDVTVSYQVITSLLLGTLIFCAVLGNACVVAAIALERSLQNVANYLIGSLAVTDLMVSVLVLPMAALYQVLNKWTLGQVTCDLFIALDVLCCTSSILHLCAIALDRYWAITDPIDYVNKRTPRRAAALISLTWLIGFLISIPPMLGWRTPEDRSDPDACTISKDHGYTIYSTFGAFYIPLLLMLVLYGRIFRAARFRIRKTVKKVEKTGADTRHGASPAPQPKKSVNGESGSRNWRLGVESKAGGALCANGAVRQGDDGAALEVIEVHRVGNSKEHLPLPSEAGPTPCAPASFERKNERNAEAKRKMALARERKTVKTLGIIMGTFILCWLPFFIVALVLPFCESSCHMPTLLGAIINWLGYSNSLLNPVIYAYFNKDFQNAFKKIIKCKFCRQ

[2] = target: T2, 5-hydroxytryptamine receptor 7 (Homo sapiens, UniProt P34969); assay: Displacement of [3H]-5-CT from human 5HT7 receptor expressed in HEK293 cells measured after 1 hr by microbeta counting method; format: cell-based
[3] = target: 3',5'-cyclic-AMP phosphodiesterase 4B (Homo sapiens, UniProt Q07343); assay: Inhibition of recombinant human PDE4B expressed in Sf9 cells measured after 10 mins by luminescence based assay
[4] = target: High affinity 3',5'-cyclic-AMP phosphodiesterase 7A (Homo sapiens, UniProt Q13946); assay: Inhibition of recombinant human PDE7A expressed in Sf9 cells measured after 10 mins by luminescence based assay
[5] = target: T2, 5-hydroxytryptamine receptor 7; assay: Antagonist activity at recombinant human 5HT7 receptor expressed in CHO-K1 cells co-transfected with beta-lactamase reporter gene assessed as inhibition of serotonin-induced cAMP accumulation measured after 1 hr by LANCE TR-FRET assay; format: functional, cell-based; conditions: filed as antagonist
[6] = Effective permeability of the compound at 200 uM incubated for 5 hrs by PAMPA based UPLC/MS analysis; format: ADME; conditions: read-out: Peff
[7] = Metabolic stability of the compound in rat liver microsomes assessed as parent compound remaining at 50 uM preincubated for 5 mins followed by incubation with NADPH regenerating system for 120 mins by LC/MS analysis; format: ADME, Microsome; conditions: read-out: Stabilty
[8] = target: T2, 5-hydroxytryptamine receptor 7; assay: Agonist activity at recombinant human 5HT7 receptor expressed in CHO-K1 cells co-transfected with beta-lactamase reporter gene assessed as cAMP accumulation measured after 1 hr by LANCE TR-FRET assay; format: functional, cell-based
[9] = target: T1, 5-hydroxytryptamine receptor 1A; assay: Binding affinity to 5HT-1A receptor (unknown origin)
[10] = target: T2, 5-hydroxytryptamine receptor 7; assay: Binding affinity to 5HT7 receptor (unknown origin)
[11] = Toxicity in Wistar rat assessed as rearings at 3 to 10 mg/kg, ip measured after 60 mins by open field test; format: organism-based; conditions: in vivo, 1 h
[12] = Toxicity in Wistar rat assessed as total ambulations at 3 to 10 mg/kg, ip measured after 60 mins by open field test; format: organism-based; conditions: in vivo, 1 h
[13] = Toxicity in Wistar rat assessed as rearings at 20 mg/kg, ip measured after 30 mins by open field test; format: organism-based; conditions: in vivo, 0.5 h
[14] = Toxicity in Wistar rat assessed as total ambulations at 20 mg/kg, ip measured after 30 mins by open field test; format: organism-based; conditions: in vivo, 0.5 h
[15] = Toxicity in Wistar rat assessed as total distance travelled at 20 mg/kg, ip measured after 30 mins by open field test (reference value: 1897.3 +/-98.6 cm); format: organism-based; conditions: in vivo, 0.5 h
Rattus norvegicus = assay: Antidepressant-like activity in Wistar rat assessed as reduction in immobility time at 20 mg/kg, ip measured after 30 mins by Forced swimming test; format: functional; conditions: 0.5 h

T2 sequence (P34969 whole entry): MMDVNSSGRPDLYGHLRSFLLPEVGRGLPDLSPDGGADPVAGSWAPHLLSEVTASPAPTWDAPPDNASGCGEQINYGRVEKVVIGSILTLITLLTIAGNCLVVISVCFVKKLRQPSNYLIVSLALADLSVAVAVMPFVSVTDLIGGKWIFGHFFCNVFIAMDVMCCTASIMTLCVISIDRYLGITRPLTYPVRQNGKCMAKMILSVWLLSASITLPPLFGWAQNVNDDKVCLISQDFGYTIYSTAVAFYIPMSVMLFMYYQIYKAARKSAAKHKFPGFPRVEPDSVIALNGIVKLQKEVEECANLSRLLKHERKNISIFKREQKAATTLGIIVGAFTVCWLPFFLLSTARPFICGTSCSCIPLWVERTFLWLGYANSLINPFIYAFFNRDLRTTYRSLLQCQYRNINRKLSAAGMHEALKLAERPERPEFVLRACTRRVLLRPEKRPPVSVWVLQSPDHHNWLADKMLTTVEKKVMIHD
Sequence of 3',5'-cyclic-AMP phosphodiesterase 4B (Q07343 whole entry): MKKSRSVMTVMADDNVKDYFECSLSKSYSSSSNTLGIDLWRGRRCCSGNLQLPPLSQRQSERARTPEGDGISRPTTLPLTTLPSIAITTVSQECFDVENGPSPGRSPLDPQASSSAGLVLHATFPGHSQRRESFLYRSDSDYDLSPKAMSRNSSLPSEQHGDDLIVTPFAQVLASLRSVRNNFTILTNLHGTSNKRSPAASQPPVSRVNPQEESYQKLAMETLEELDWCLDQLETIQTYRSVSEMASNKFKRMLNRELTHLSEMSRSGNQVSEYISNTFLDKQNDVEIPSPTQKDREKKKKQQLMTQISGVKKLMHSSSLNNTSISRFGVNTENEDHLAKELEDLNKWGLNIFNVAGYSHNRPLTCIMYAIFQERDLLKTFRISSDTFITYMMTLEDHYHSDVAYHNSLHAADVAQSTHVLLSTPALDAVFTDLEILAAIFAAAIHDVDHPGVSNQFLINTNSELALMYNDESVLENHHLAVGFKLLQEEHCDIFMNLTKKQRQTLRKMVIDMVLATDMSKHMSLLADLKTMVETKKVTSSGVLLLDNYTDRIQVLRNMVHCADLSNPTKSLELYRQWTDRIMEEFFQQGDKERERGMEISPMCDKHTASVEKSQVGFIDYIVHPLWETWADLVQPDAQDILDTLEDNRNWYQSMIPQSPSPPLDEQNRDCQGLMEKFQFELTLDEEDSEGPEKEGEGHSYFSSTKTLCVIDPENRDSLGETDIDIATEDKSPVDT
Sequence of High affinity 3',5'-cyclic-AMP phosphodiesterase 7A (Q13946 whole entry): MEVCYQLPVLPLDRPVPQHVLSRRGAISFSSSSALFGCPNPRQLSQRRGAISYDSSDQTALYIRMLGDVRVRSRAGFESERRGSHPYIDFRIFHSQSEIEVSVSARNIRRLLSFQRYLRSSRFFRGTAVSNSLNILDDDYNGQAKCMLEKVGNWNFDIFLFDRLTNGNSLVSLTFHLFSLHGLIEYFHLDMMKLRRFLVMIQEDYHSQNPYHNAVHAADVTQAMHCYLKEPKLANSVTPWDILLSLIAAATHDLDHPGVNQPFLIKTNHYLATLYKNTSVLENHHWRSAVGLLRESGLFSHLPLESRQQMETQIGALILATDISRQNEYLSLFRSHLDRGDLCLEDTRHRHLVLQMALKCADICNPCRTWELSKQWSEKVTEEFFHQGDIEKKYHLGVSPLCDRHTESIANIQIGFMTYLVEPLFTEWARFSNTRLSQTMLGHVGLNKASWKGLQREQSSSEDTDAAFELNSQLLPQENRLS

Structure (SMILES): COc1ccccc1CNC(=O)CCCCN1CCN(c2ccccc2OC)CC1
Ki [1]: 82 nM | Ki [2]: 366 nM

Structure (SMILES): O=S(=O)(NCCCCN1CCN(c2nsc3ccccc23)CC1)c1c[nH]c2ncccc12
Ki [9]: 78 nM | Ki [10]: 93 nM

Structure (SMILES): COc1ccccc1N1CCN(CCCCC(=O)Nc2cccc(C(=O)OC(C)(C)C)c2)CC1
Ki [2]: 927 nM

Structure (SMILES): COc1ccccc1N1CCN(CCCCC(=O)Nc2ccccc2O)CC1
Ki [1]: 31 nM | Ki [2]: 300 nM

Structure (SMILES): COc1ccccc1N1CCN(CCCCCC(=O)Nc2ccccc2O)CC1
Ki [1]: 95 nM | Ki [2]: 254 nM

Structure (SMILES): COc1ccccc1N1CCN(CCCCC(=O)Nc2ccccc2C(N)=O)CC1
Ki [1]: 82 nM | Ki [2]: 1870 nM

Structure (SMILES): COc1ccccc1N1CCN(CCCCC(=O)NCc2ccccc2O)CC1
Ki [2]: 343 nM

Structure (SMILES): COc1ccccc1N1CCN(CCCC(=O)Nc2cc(C(C)(C)C)ccc2O)CC1
IC50 [3]: 69000 nM | IC50 [4]: 57000 nM | Ki [2]: 328 nM

Structure (SMILES): COc1ccccc1N1CCN(CCCCCC(=O)NCc2ccccc2O)CC1
Ki [1]: 70 nM | Ki [2]: 289 nM

Structure (SMILES): COc1ccccc1N1CCN(CCCCC(=O)Nc2cc(C(C)(C)C)ccc2O)CC1
IC50 [3]: 36500 nM | IC50 [4]: > 200000 nM | Ki [1]: 61 nM | Ki [2]: 159 nM

Structure (SMILES): COc1ccccc1CNC(=O)CCCN1CCN(c2ccccc2OC)CC1
Ki [1]: 292 nM | Ki [2]: 869 nM

Structure (SMILES): CN(C)CCC[C@@]1(c2ccc(F)cc2)OCc2cc(C#N)ccc21 [ESCITALOPRAM]
Activity [13]: Non-Toxic | Activity [14]: Non-Toxic | Activity [15]: 2058.5 cm | inhibition in vivo at 20 mg/kg (Rattus norvegicus): 49%

Structure (SMILES): COc1ccccc1CNC(=O)CCCCCN1CCN(c2ccccc2OC)CC1
Ki [1]: 64 nM | Ki [2]: 515 nM

Structure (SMILES): CCn1cc(C(=O)O)c(=O)c2cc(F)c(N3CCNCC3)cc21 [NORFLOXACIN]
Papp at 5 h, 200 µM [6]: 0.6 ×10⁻⁶ cm/s

Structure (SMILES): COc1ccccc1N1CCN(CCCCCC(=O)Nc2cc(C(C)(C)C)ccc2O)CC1
Ki [2]: 154 nM

Structure (SMILES): COc1ccccc1N1CCN(CCCCC(=O)NCc2ccc(C(C)(C)C)cc2)CC1
Ki [1]: 138 nM | Ki [2]: 391 nM

Structure (SMILES): COc1ccccc1N1CCN(CCCC(=O)NCc2ccccc2O)CC1
Ki [2]: 319 nM

Further lines, with some results ahead:

Ki [1]: 125 nM | Ki [2]: 799 nM
Structure (SMILES): COc1ccccc1N1CCN(CCCCCC(=O)Nc2ccc(C(=O)OC(C)(C)C)cc2)CC1

Ki [1]: 405 nM | Ki [2]: 471 nM
Structure (SMILES): COc1ccccc1N1CCN(CCCC(=O)Nc2ccccc2O)CC1

IC50 [3]: 130000 nM | IC50 [4]: > 200000 nM | Ki [1]: 16 nM | Ki [2]: 75 nM | Kb [5]: 54 nM | Papp at 5 h, 200 µM [6]: 4.8 ×10⁻⁶ cm/s | remaining at 2 h, 50 µM [7]: 23.8% | Activity [8]: inactive
Structure (SMILES): COc1ccccc1N1CCN(CCCCC(=O)Nc2cccc(C(C)(C)C)c2)CC1.Cl

Ki [1]: 43 nM | Ki [2]: 434 nM
Structure (SMILES): COc1ccccc1N1CCN(CCCCCC(=O)Nc2ccc(C(C)C)cc2)CC1

IC50 [3]: 138000 nM | IC50 [4]: > 200000 nM | Ki [1]: 21 nM | Ki [2]: 496 nM
Structure (SMILES): COc1ccccc1N1CCN(CCCCC(=O)Nc2ccc(C(C)(C)C)cc2)CC1

Ki [2]: 514 nM
Structure (SMILES): COc1ccccc1N1CCN(CCCCCC(=O)Nc2ccc(C(C)(C)C)cc2)CC1

Ki [1]: 34 nM | Ki [2]: 141 nM
Structure (SMILES): COc1ccccc1N1CCN(CCCCCC(=O)Nc2cccc(C(C)C)c2)CC1

Ki [1]: 187 nM | Ki [2]: 157 nM
Structure (SMILES): COc1ccccc1N1CCN(CCCC(=O)Nc2cccc(C(C)C)c2)CC1

Ki [1]: 224 nM | Ki [2]: 130 nM
Structure (SMILES): COc1ccccc1N1CCN(CCCC(=O)Nc2cccc(C(C)(C)C)c2)CC1

Ki [1]: 526 nM | Ki [2]: 1140 nM
Structure (SMILES): COc1ccccc1N1CCN(CCCC(=O)Nc2ccccc2C(N)=O)CC1

Ki [1]: 287 nM | Ki [2]: 3280 nM
Structure (SMILES): COc1ccccc1N1CCN(CCCC(=O)Nc2ccc(C(=O)OC(C)(C)C)cc2)CC1

Ki [1]: 69 nM | Ki [2]: 260 nM
Structure (SMILES): CCC(C)c1ccc(NC(=O)CCCCCN2CCN(c3ccccc3OC)CC2)cc1 (centres undefined)

IC50 [3]: 169000 nM | IC50 [4]: 126000 nM | Ki [1]: 14 nM | Ki [2]: 323 nM
Structure (SMILES): CCC(C)c1ccc(NC(=O)CCCCN2CCN(c3ccccc3OC)CC2)cc1 (centres undefined)

Ki [1]: 53 nM | Ki [2]: 190 nM
Structure (SMILES): COc1ccccc1N1CCN(CCCCCC(=O)Nc2cccc(C(C)(C)C)c2)CC1

IC50 [3]: 88100 nM | IC50 [4]: > 200000 nM | Ki [2]: 151 nM | Papp at 5 h, 200 µM [6]: 8.6 ×10⁻⁶ cm/s | remaining at 2 h, 50 µM [7]: 6.5%
Structure (SMILES): COc1ccccc1N1CCN(CCCCC(=O)Nc2cccc(C(C)C)c2)CC1.Cl

IC50 [3]: 80400 nM | IC50 [4]: 151000 nM | Papp at 5 h, 200 µM [6]: 10.5 ×10⁻⁶ cm/s | remaining at 2 h, 50 µM [7]: 90.1%
Structure (SMILES): COc1ccccc1N1CCN(CCCCC(=O)Nc2ccc(C(C)C)cc2)CC1.Cl
Activity [11]: Non-Toxic | Activity [12]: Non-Toxic

Ki [1]: 37 nM | Ki [2]: 354 nM
Structure (SMILES): CCC(C)c1ccc(NC(=O)CCCN2CCN(c3ccccc3OC)CC2)cc1 (centres undefined)

IC50 [3]: 96000 nM | IC50 [4]: 27000 nM | Ki [2]: 1200 nM
Structure (SMILES): COc1ccccc1N1CCN(CCCC(=O)Nc2ccc(C(C)(C)C)cc2)CC1

Ki [1]: 150 nM | Ki [2]: 954 nM
Structure (SMILES): COc1ccccc1N1CCN(CCCC(=O)Nc2ccc(C(C)C)cc2)CC1
